The values below come from PMC12610816, “New Dihalogenated Derivatives of Condensed Benzimidazole Diones Promotes Cancer Cell Death Through Regulating STAT3/HK2 Axis/Pathway” (Molecules, 2025).

For orientation: IC50 means the concentration at which inhibition is half-maximal.

The target in one data set is T1, pyruvate kinase M2 (Homo sapiens, UniProt P14618).
T1 construct: activity of rate-limiting glycolytic enzymes—hexokinase II, phosphofructokinase I, and pyruvate kinase M2—in MCF-7 cells; endogenous in cells
As to the kind of experiment: Glycolytic enzyme activity in treated cells (colorimetric kit). It is filed as cell-based. The conditions noted are these: MCF-7 cells, 24-h incubation, 1/2 IC50.

For the next data set, the system named is phosphofructokinase I. The description is as above. The conditions noted are these: MCF-7 cells, 24-h incubation, 1/2 IC50. It is filed as cell-based, human.
In another data set the test system is SW-480. In words: MTT cytotoxicity assay. It counts as cell-based. The conditions noted are these: SW480, Human colorectal cancer cells, 24 h, read-out: IC50 of Cytotoxic Effect, SW-480. The procedure:
(§1) Human lung adenocarcinoma A549 cells, breast carcinoma MCF-7 cells, colon adenocarcinoma SW480 cells, neuroblastoma SH-SY5Y cells, and normal human embryonic kidney HEK-293 cells were obtained from the collection of the Institute of Cytology of the Russian Academy of Sciences (Saint Petersburg, Russia). Cultivation was performed in complete DMEM supplemented with glutamax, containing 10% fetal bovine serum and 1% penicillin-streptomycin. Cell cultures were incubated at 37 °C in a humidified atmosphere with 5% CO2.
(§2) The MTT assay was used to determine the cytotoxic profile of the synthesized compounds [128]. This method is based on the reduction of the tetrazolium salt (3-(4,5-dimethylthiazol-2-yl)-2,5-diphenyl tetrazolium bromide) by mitochondrial dehydrogenases of living cells to water-insoluble formazan crystals.
(§3) Cells in the exponential growth phase were seeded in 96-well culture plates. After 24 h, the test compounds were added to each well at various concentrations (from 0.01 to 100 µM) in triplicate. Control wells contained 1% DMSO solution.
(§4) Following a 24-h incubation with the compounds, 5 mg/mL MTT solution was added to each well, and the cells were incubated at 37 °C for 2 h. Then, the MTT solution was carefully removed, and 200 µL DMSO was added to dissolve the formed formazan crystals. Optical density was measured at a wavelength of 540 nm.
(§5) The efficacy indicators of the cytotoxic effect were IC50 values, representing compound concentrations causing 50% cell death in the sample.
On the technique in general: Tetrazolium dyes change colour on reduction, which living cells bring about.

Another data set is described as follows: MTT cytotoxicity assay. The following applies: HEK-293 cells (normal embryonic kidney), Human embryonic kidney (normal origin), read-out: IC50 of Cytotoxic Effect, Hek-293. It is filed as cell-based. The procedure: as §1, §2, §3, §4, §5
For the next data set, the system named is MCF-7. In words: MTT cytotoxicity assay. The following applies: MCF7, Human breast adenocarcinoma cells, 24 h, read-out: IC50 of Cytotoxic Effect, MCF-7. It counts as cell-based. As to the method: as §1, §2, §3, §4, §5
For another data set, the system named is A549. In words: MTT cytotoxicity assay. It counts as cell-based. The following applies: Human non-small cell lung cancer, 24 h, read-out: IC50 of Cytotoxic Effect, A549. As to the method: as §1, §2, §3, §4, §5
For the next data set, the system named is SH-SY5Y. In words: MTT cytotoxicity assay. It counts as cell-based. The conditions noted are these: Human neuroblastoma, 24 h, read-out: IC50 of Cytotoxic Effect, SH-SY5Y. The procedure: as §1, §2, §3, §4, §5
A further data set concerns hexokinase II. As to the kind of experiment: Glycolytic enzyme activity in treated cells (colorimetric kit). It is filed as cell-based, human. The conditions noted are these: MCF-7 cells, 24-h incubation, 1/2 IC50.
Data set [1] can be described thus: MTT cytotoxicity assay, whole cell line panel. It counts as cell-based. The conditions noted are these: human; summary of Table 1 over all five cell lines; read-out: IC50 values of the cytotoxic effect, range over the cell lines.
Procedure: The cytotoxic effects of the synthesized compounds were tested on the cell lines A549, MCF-7, SW-480, SH-SY5Y, and HEK-293.

T1 sequence (P14618 whole entry): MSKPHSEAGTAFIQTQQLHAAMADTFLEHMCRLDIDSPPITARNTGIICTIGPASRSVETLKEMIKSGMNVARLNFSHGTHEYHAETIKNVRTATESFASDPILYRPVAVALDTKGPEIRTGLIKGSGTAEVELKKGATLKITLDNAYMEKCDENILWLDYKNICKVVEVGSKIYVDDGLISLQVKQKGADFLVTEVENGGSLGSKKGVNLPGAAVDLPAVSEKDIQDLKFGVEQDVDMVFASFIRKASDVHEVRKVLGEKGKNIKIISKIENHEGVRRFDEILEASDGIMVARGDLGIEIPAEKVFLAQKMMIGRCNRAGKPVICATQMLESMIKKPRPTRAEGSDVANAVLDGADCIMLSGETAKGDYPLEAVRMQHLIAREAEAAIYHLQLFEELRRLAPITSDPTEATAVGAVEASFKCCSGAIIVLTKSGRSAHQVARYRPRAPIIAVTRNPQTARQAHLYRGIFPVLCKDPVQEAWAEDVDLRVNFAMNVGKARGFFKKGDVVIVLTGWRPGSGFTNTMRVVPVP

Regarding `O=C1C(Br)=C(Br)C(=O)c2c1nc1n2CCCC1` [Compound 6a, 7,8-dibromo-1,2,3,4-tetrahydropyrido[1,2-a]benzimidazole-6,9-dione], the “Inhibition of enzyme activity, % of control: PKM2” value (“Inhibition … % of control: PKM2” below) on pyruvate kinase M2 was 11.39 % of control. For the same compound, the “Inhibition of enzyme activity, % of control: PFK1” value (from here on “Inhibition … % of control: PFK1”) with phosphofructokinase I is on record as 9.75 % of control. Moreover, the IC50 with SW-480 came to 9.11 ± 0.13 µM; with MCF-7 it was 8.81 ± 1.65 µM; in the data set with A549, 9.53 ± 0.59 µM; in the data set with SH-SY5Y, 9.66 ± 0.57 µM. The 50% inhibitory concentration (IC50) at 24 h in the data set “MTT cytotoxicity assay” was 24.8 ± 0.42 µM.

For the compound `O=C1C(Br)=C(Cl)C(=O)c2c1nc1n2CCCC1` [Compound 6b, 7-bromo-8-chloro-1,2,3,4-tetrahydropyrido[1,2-a]benzimidazole-6,9-dione], the “Inhibition of enzyme activity, % of control: HK2” value (shortened to “Inhibition … % of control: HK2”) in the data set on hexokinase II is on record as 34.25 % of control. Further, the “Inhibition … % of control: PKM2” value at pyruvate kinase M2 is 14.85 % of control. Moreover, the “Inhibition … % of control: PFK1” value in the data set on phosphofructokinase I was 7.49 % of control. The half-maximal inhibitory concentration (IC50) with SW-480 turned out to be 10.5 ± 0.68 µM; with MCF-7, 7.79 ± 0.03 µM; with A549, 8.86 ± 3.19 µM; with SH-SY5Y, 8.6 ± 0.06 µM. In addition, in “MTT cytotoxicity assay”, the IC50 at 24 h is 16.52 ± 0.15 µM.

On to `O=C1C(Cl)=C(Br)C(=O)c2c1nc1n2CCCC1` [Compound 6c, 8-bromo-7-chloro-1,2,3,4-tetrahydropyrido[1,2-a]benzimidazole-6,9-dione], for which the “Inhibition … % of control: HK2” value in the data set on hexokinase II is 36.01 % of control. Also, on pyruvate kinase M2, the “Inhibition … % of control: PKM2” value is on record as 13.57 % of control. Moreover, in the data set with phosphofructokinase I, the “Inhibition … % of control: PFK1” value is on record as 9.05 % of control. Moreover, the IC50 was 10.22 ± 0.04 µM with SW-480, 8.35 ± 0.32 µM in the data set on MCF-7, 7.81 ± 0.64 µM with A549 and 9.49 ± 0.8 µM in the data set on SH-SY5Y. The IC50 at 24 h in “MTT cytotoxicity assay” worked out at 16 ± 0.18 µM.

As to `O=C1C(Cl)=C(Cl)C(=O)c2c1nc1n2CCCC1` [Compound 6d, 7,8-dichloro-1,2,3,4-tetrahydropyrido[1,2-a]benzimidazole-6,9-dione], at pyruvate kinase M2, the “Inhibition … % of control: PKM2” value is given as 9.48 % of control. Further, in the data set on phosphofructokinase I, the “Inhibition … % of control: PFK1” value is on record as 8.30 % of control. For the same compound, the IC50 with SW-480 is 8.68 ± 0.2 µM; in the data set on MCF-7, 8.52 ± 0.23 µM; in the data set with A549 it was 7.76 ± 0.17 µM; with SH-SY5Y it was 8.52 ± 0.49 µM. Besides, the IC50 at 24 h in “MTT cytotoxicity assay” was 15.1 ± 0.38 µM.

As to `CC1CCn2c(nc3c2C(=O)C(Br)=C(Cl)C3=O)C1` (stereo not shown) [Compound 6e, 8-bromo-7-chloro-3-methyl-1,2,3,4-tetrahydropyrido[1,2-a]benzimidazole-6,9-dione], the “Inhibition … % of control: HK2” value in the data set with hexokinase II was 36.22 % of control. Further, the “Inhibition … % of control: PKM2” value on pyruvate kinase M2 is 8.36 % of control. In the data set with phosphofructokinase I, the “Inhibition … % of control: PFK1” value was 7.40 % of control. The IC50 with SW-480 came out at 9.53 ± 0.51 µM; in the data set with MCF-7, 8.97 ± 0.05 µM; in the data set on A549, 8.23 ± 0.39 µM; in the data set on SH-SY5Y it was 9.28 ± 0.15 µM. Moreover, in “MTT cytotoxicity assay”, the IC50 at 24 h is 20.2 ± 0.3 µM.

Consider `O=C1C(Cl)=C(Br)C(=O)c2c1nc1n2CCOC1` [Compound 6f, 7-bromo-8-chloro-3,4-dihydro-1H-[1,4]oxazino[4,3-a]benzimidazole-6,9-dione], for which, in the data set on hexokinase II, the “Inhibition … % of control: HK2” value is given as 30.83 % of control. Moreover, the “Inhibition … % of control: PKM2” value at pyruvate kinase M2 is listed as 12.09 % of control. Further, the “Inhibition … % of control: PFK1” value with phosphofructokinase I is 7.57 % of control. Further, the IC50 in the data set with SW-480 amounted to 8.44 ± 0.07 µM; in the data set with MCF-7, 8.9 ± 0.19 µM; in the data set on A549, 11.3 ± 2.49 µM; in the data set with SH-SY5Y, 10.8 ± 0.93 µM. Moreover, the IC50 at 24 h in “MTT cytotoxicity assay” is 25.38 ± 0.02 µM.

Regarding `CO[C@@]12[C@H](COC(N)=O)C3=C(C(=O)C(C)=C(N)C3=O)N1C[C@@H]1N[C@@H]12` [Mytomycin C, Mitomycin C, reference compound], the values for the IC50 at 24 h (in data set [1]; in the data set “MTT cytotoxicity assay”) were 8 to 20 µM and 6.59 ± 1.46 µM, respectively. Further, the IC50 in the data set with SW-480 was found to be 11.3 ± 0.46 µM; in the data set with MCF-7, 20.4 ± 1.74 µM; with A549, 18.1 ± 1.8 µM; in the data set with SH-SY5Y, 7.04 ± 0.02 µM.
